According to US12384779B2, “Bicyclic compounds” (Aligos Therapeutics, Inc., priority 2022, dated 2025):

Assays:
HBV = test: HBV-DNA antiviral assay using HepG2.117 cells (intracellular HBV DNA by qPCR); format: cell-based, genotype D HBV; conditions: Hepatitis B virus, 72 h, HBV DNA inhibition, 3 days incubation
Description: (§1) The following assay procedure describes the HBV antiviral assay, using HepG2.117 cells, which carry a stably integrated genotype D HBV genome under the control of a Tet-off promoter, and intracellular HBV DNA quantification as endpoint. Cell viability is assessed in parallel by measuring the intracellular ATP content using CellTiter-Glo 2.0 (Promega).
(§2) On day 0, HepG2.117 cells (which are maintained in routine cell culture with doxycycline present in the medium at a final concentration of 1 μg/mL) are seeded in 96-well plates (white with clear bottom) at a density of 2.0×10^4 cells/well (0.1 mL/well) in medium without doxycycline to induce pgRNA transcription and subsequent formation of HBV particles. The cells are incubated at 37° C. and 5% CO2.
(§3) On day 1, medium is removed from each well, the test articles are diluted in culture medium without doxcycyline and 100 μL was added to cell culture wells (9 concentrations, 4-fold dilution). For each plate, 6 untreated (merely DMSO) wells are included. The final concentration of DMSO in the culture medium is 2%. Each plate is prepared in duplicate (one for HBV DNA extraction, one for CellTiter-Glo 2.0 measurement). The cells are incubated at 37° C. and 5% CO2 for 3 days.
(§4) On day 4, cell viability is assessed using CellTiter-Glo 2.0 and cell lysates are prepared for HBV DNA extraction and subsequent quantification by qPCR.
Medium is removed from each well and 100 μL of 0.33% NP-40 in H2O was added to each well. Plates are sealed, incubated at 4° C. for 5 mins, vortexed extensively and centrifuged briefly. Next, 35 μL of lysate is added to 65 μL QuickExtract DNA Extraction Solution (Epicentre) in a PCR plate for each well. PCR plate is incubated at 65° C. for 6 mins, 98° C. for 2 mins and finally cooled to 4° C. HBV DNA is then quantified by qPCR with HBV-specific primers and probes as specified in Table 2 using the Bio-Rad SSOAdvanced Universal Probes Supermix on a CFX96 machine (Bio-Rad). The PCR cycle program consisted of 95° C. for 3 mins, followed by 40 cycles at 95° C. for 10 sec and 60° C. for 30 sec.
A DNA standard is prepared by dilution of an IDT gBlock corresponding to the amplicon with concentrations ranging from 10^2 to 10^8 copies/input (i.e., per 4 μL) and used to generate a standard curve by plotting Cq values vs. HBV DNA standard concentration. The quantity of HBV DNA in each sample is determined by interpolating from the standard curve.
(§5) Cell viability is calculated as follows: % Cell viability=(luminescence value of test sample)/(average luminescence value of 2% DMSO control)×100%. HBV DNA inhibition was calculated as follows: 100−(HBV DNA copy number of test sample)/(average HBV DNA copy number of 2% DMSO control)×100%. No normalization to entecavir is required due to the excellent dynamic window of this assay. The CC50, EC50 and EC90 values were determined by dose-response curves fitted using non-linear regression.

[1] = Cell viability by CellTiter-Glo 2.0 (intracellular ATP) in HepG2.117 cells; format: cell-based; conditions: human, CellTiter-Glo 2.0, 3 days incubation
Description: as §1, §2, §3, §4
Using the other plates, the cell viability is quantified by CellTiter-Glo 2.0 according to the manufacturer's manual. In brief, 100 μL of reagent solution is added to the culture plates and shaken for 2′. The plates are incubated at rt for 10 min and luminescence signal is subsequently measured on a VarioSkan Lux (ThermoFisher) plate reader.
as §5

Compound	EC50 (HBV) [nM]	CC50 at 3 days [1] [nM]
CNC(=O)c1ccc(-n2c(-n3nc(C(C)C)cc3C)nc3c(c2=O)C[C@@H](C)N(C(=O)c2ccc(Br)c(C(F)(F)F)c2)C3)cc1 [Compound 7]	≤ 50	> 50000
CNC(=O)c1ccc(-n2c(-n3nc(C#N)cc3C)nc3c(c2=O)C[C@@H](C)N(C(=O)c2ccc(Br)c(C(F)(F)F)c2)C3)cc1 [Compound 1, (R)-4-(7-(4-bromo-3-(trifluoromethyl)benzoyl)-2-(3-cyano-5-methyl-1H-pyrazol-1-yl)-6-methyl-4-oxo-5,6,7,8-tetrahydropyrido[3,4-d]pyrimidin-3(4H)-yl)-N-methylbenzamide]	≤ 50	> 50000
CNC(=O)c1ccc(-n2c(-n3nc(C)cc3C#N)nc3c(c2=O)C[C@@H](C)N(C(=O)c2ccc(Br)c(C(F)(F)F)c2)C3)cc1 [Compound 2, (R)-4-(7-(4-bromo-3-(trifluoromethyl)benzoyl)-2-(5-cyano-3-methyl-1H-pyrazol-1-yl)-6-methyl-4-oxo-5,6,7,8-tetrahydropyrido[3,4-d]pyrimidin-3(4H)-yl)-N-methylbenzamide]	≤ 50	29200
CCc1cc(CC)n(-c2nc3c(c(=O)n2-c2ccc(C(=O)NC)cc2)C[C@@H](C)N(C(=O)c2ccc(Br)c(C(F)(F)F)c2)C3)n1 [Compound 4]	≤ 50	> 50000
CNC(=O)c1ccc(-n2c(-n3nc(C(C)(C)C)cc3C)nc3c(c2=O)C[C@@H](C)N(C(=O)c2ccc(Br)c(C(F)(F)F)c2)C3)cc1 [Compound 6]	≤ 50	41800
CNC(=O)c1ccc(-n2c(-n3nc(C)cc3C(C)C)nc3c(c2=O)C[C@@H](C)N(C(=O)c2ccc(Br)c(C(F)(F)F)c2)C3)cc1 [Compound 8]	≤ 50	> 50000
CNC(=O)c1ccc(-n2c(-n3cc4c(n3)CCCC4)nc3c(c2=O)C[C@@H](C)N(C(=O)c2ccc(Br)c(C(F)(F)F)c2)C3)cc1 [Compound 10]	≤ 50	> 50000
[2H]c1c(C)nn(-c2nc3c(c(=O)n2-c2ccc(C(=O)NC)cc2)C[C@@H](C)N(C(=O)c2ccc(Br)c(C(F)(F)F)c2)C3)c1C [Compound 12]	≤ 50	> 50000
CNC(=O)c1ccc(-n2c(-n3nc(C4CC4)cc3C)nc3c(c2=O)C[C@@H](C)N(C(=O)c2ccc(Br)c(C(F)(F)F)c2)C3)cc1 [Compound 3, (R)-4-(7-(4-bromo-3-(trifluoromethyl)benzoyl)-2-(3-cyclopropyl-5-methyl-1H-pyrazol-1-yl)-6-methyl-4-oxo-5,6,7,8-tetrahydropyrido[3,4-d]pyrimidin-3(4H)-yl)-N-methylbenzamide]	≤ 50	> 50000
CNC(=O)c1ccc(-n2c(-n3nc(C(F)(F)F)cc3C)nc3c(c2=O)C[C@@H](C)N(C(=O)c2ccc(Br)c(C(F)(F)F)c2)C3)cc1 [Compound 5]	≤ 50	> 500
CNC(=O)c1ccc(-n2c(-n3nc(C)c(C)c3C)nc3c(c2=O)C[C@@H](C)N(C(=O)c2ccc(Br)c(C(F)(F)F)c2)C3)cc1 [Compound 9]	50 to 500	> 5000
CNC(=O)c1ccc(-n2c(-n3nc(C(=O)N(C)C)cc3C)nc3c(c2=O)C[C@@H](C)N(C(=O)c2ccc(Br)c(C(F)(F)F)c2)C3)cc1 [Compound 11]	50 to 500	> 50000
